# Data: patent US8846066B2, “Methods and related compositions for reduction of fat and skin tightening” (The Regents of the University of California, priority 2004, dated 2014)
# Experiments:
# [1] = tested on: porcine skin (epidermis, dermis, subcutaneous tissue, muscle); experiment: Histology of full thickness porcine skin after injection
# Protocol: Histology was performed by injecting stock reagent solutions (0.5 mL) into full thickness porcine skin at various levels (epidermis, dermis, and subcutaneous tissue) with 1.0 mL syringes and 30-gauge, 0.5 inch needles. Needle depth was visualized along the margin of the porcine tissue with the intent of saturating the target tissue. One hour after incubation with PBS at 37° C., multiple 5.0 mm biopsy specimens were obtained from the injected sites, each condition performed in triplicate. Tissue was fixed in formaldehyde, paraffin-embedded, and stained with hematoxylin-eosin. Specimens were evaluated by a board-certified dermatopathologist who was blinded to the treatment protocol.
# porcine fat tissue = experiment: MTS assay in fresh porcine fat specimens; type: cell-based; conditions: PBF or 5% solutions, 4 hours
# Protocol: To measure cell viability after detergent treatment, HaCaT human keratinocyte cells were cultured in DMEM (Dulbecco's modified Eagle's medium) supplemented with 10% fetal calf serum, penicillin, and streptomycin. […] Cell viability was determined by an absorbance spectrophotometer (at 490 nm) after 4 hour incubation with the assay at 37° C. To determine cell viability in fresh tissue, fat specimens were incubated for 4 hours in 24 well plates with stock reagents and the MTS assay. Tissue specimens were then visualized for color change and the amount of MTS in their supernatants was measured by absorbance (at 490 nm). All studies were performed in triplicate. Absorbance at 490 nm (OD 490) is proportional to the number of living cells in the culture.
# Porcine tissue was obtained immediately after sacrifice, shaved, and placed on ice for a maximum of four hours before use. […] Calcein retention was determined by tissue fluorescence using purple (411 nm) light and visually observing the emitted green (500 nm) light using an emission filters.
# Fresh porcine skin was used to determine if the effects of these detergent substances on cultured cells were similar in tissue. […] The difference in fat cell viability between the solutions was quantified by measuring the absorbance (at 490) of the supernatants collected from the treated fat specimens (FIG. 3b). […]
# adipocytes = experiment: Adipocyte survival on addition of PC to 4.75% DC; type: cell-based; conditions: 5% phosphatidylcholine added to 4.75% DC
# Protocol: FIG. 9 illustrates survival of adipocytes when phosphatidylcholine is added to 4.75% sodium deoxycholate solution. On y-axis, 1 represents 100% survival. All % concentrations are w/v %. Survival of the cells in the absence of DC and PC is on an average 0.113.
compound,measurement,setting,value
"CCCCCCCCCCCC[N+](C)(C)CC(=O)[O-] [Empigen, lauryldimethylbetaine, reference compound]","histologic changes in epidermis, dermis, adnexal structures",[1],loss of fibroblast nuclear staining and hyalinization of dermal collagen
"alkylaryl polyether alcohol [Triton, reference compound]","fat cell viability (MTS purple dye, absorbance at 490)",porcine fat tissue,comparable loss of purple dye
phosphatidylcholine,effect of phosphatidylcholine on adipolysis,adipocytes,inhibits adipolysis slightly
